The assay concerns fundus of the stomach (gastric tone). The experiment in a line: Gastric tone measured by an electronic barostat in conscious dogs. Type of assay: in vivo. The settings on record: mean maximal change in gastric volume on relaxation of the fundus; S.C. administration, 0.63 mg/kg; 1 hour observation period; constant pressure 6 mmHg; conscious female beagle dogs. As to the method:
C.1. Gastric Tone Measured by an Electronic Barostat in Conscious Dogs Gastric tone cannot be measured by manometric methods. Therefore an electronic barostat was used. This allows the study of the physiological pattern and regulation of gastric tone in conscious dogs and the influence of test-compounds on this tone. The barostat consists of an air injection system which is connected by a double-lumen 14-French polyvinyl tube to an ultrathin flaccid polyethylene bag (maximal volume: ±700 ml). Variations in gastric tone were measured by recording changes in the volume of air within an intragastric bag, maintained at a constant pressure. The barostat maintains a constant pressure (preselected) within a flaccid air-filled bag introduced into the stomach, changing the volume of air within, the bag by an electronic feedback system. Thus, the barostat measures gastric motor activity (contraction or relaxation) as changes in intragastric volume (decrease or increase resp.) at a constant intragastric pressure. The barostat consists of a strain gauge linked by an electronic relay to an air injection-aspiration system. Both the strain gauge and the injection system are connected by means of double-lumen polyvinyl tube to an ultrathin polyethylene bag. […] Test compounds were screened, i.e. changes in gastric volume were measured, usually at 0.63 mg/kg. […]

For the substance “[1(R),[B-(3α,4α)]]-1-[1-[(3,4-dihydro-2H-1-benzopyran-2-yl)methyl]-3-methoxy-4-piperidinyl]-2(1H)pyrimidinone [Co. No. 2]”, the “Maximum change in volume” value turned out to be 9 mL.

These data come from patent US7358239B2, “Pyrrolidinyl, piperidinyl or homopiperidinyl substituted (benzodioxan, benzofuran or benzopyran) derivatives” (Janssen Pharmaceutica, N.V., priority 1999, dated 2008).
